The results in this text go back to patent US4977151A, “Ethanone oximes and pharmaceutical compositions thereof” (Mitsubishi Kasei Corporation, priority 1987, dated 1990).

Molecules are shown by their SMILES. Counter-ions that a name gives are not always drawn.

One assay relates to stress-induced gastric ulcer. Kind of assay: Anti-stress ulcer test: inhibition of stress-induced gastric ulcer in rats. The class given is in vivo, rat (Douryu male rats). The note with it: Rattus norvegicus, po, 15 h, read-out: Inhibition Rate of Stress-Induced Ulcer (%). As to the method:
Anti-stress ulcer tests were conducted as described below. Douryu non-fasted male rats (Shizuoka Laboratory Animal Center, body weight: 220-250 g), five in each group, were immobilized within a stress cage made of wire net and immersed in a water bath at 22 ±1° C. to a depth of xiphoid for loading them with stresses. The rats were clubbed to death after 15 hours and their stomachs were extirpated. After injecting about 15 ml of an aqueous 1% formalin solution into each of the stomachs, they were immersed in an aqueous 1 % formalin solution for about 10 minutes and fixed. After fixation, the stomachs were incised along the greater curvature. The longer diameter of each ulcer generated in the glandular portion was measured under stereomicroscope (X10) and the sum of them was defined to be an ulcer coefficient (mm). Chemicals to be tested were suspended in an aqueous 1 % gum arabic solution and orally administrated at a dose of 2 ml/kg, 30 min before the stress loading. For the control group, an aqueous 1 % gum arabic solution only was administrated, and their ulcer coefficient was compared to that of the group administrated with the tested chemicals to calculate the suppression rate of the tested chemicals. The dosage was 50 mg/kg for each of the compounds. The test compounds in the table are identified in corresponding Examples hereinafter described.
With `CN=C(NC#N)NCCSCc1nc[nH]c1C` [Cimethidine, reference compound], the inhibition in vivo at 200 mg/kg worked out at 69.7%.

Staying with this assay, now noted: Rattus norvegicus; 50 mg/kg, oral, 30 min before stress loading; water immersion stress 22 ±1° C., 15 hours; vs control group; read-out: Inhibition Rate of Stress-Induced Ulcer (%).
For the molecule `CN1CCN(C/C(=N\O)c2ccc(S(=O)(=O)c3ccccc3)cc2)CC1` [Example 20, (Z)-2-(4-methylpiperazin-1-yl)-1-(4-phenylsulfonyl-phenyl)-ethanone oxime], the inhibition in vivo at 50 mg/kg is 80.3%. With `CN1CCN(C/C(=N\O)c2ccc(Cc3ccccc3)cc2)CC1` [Example 5, (Z)-2-(4-methylpiperazin-1-yl)-1-(4-benzyl-phenyl)-ethanone oxime], the inhibition in vivo at 50 mg/kg was found to be 100%. With `CC(C)Oc1ccccc1CCc1ccc(/C(CN2CCN(C)CC2)=N/O)cc1` [Example 40, (Z)-2-(4-methylpiperazin-1-yl)-1-(4-(2-(2-isopropoxy-phenyl)-ethyl)-phenyl)-ethanone oxime], the inhibition in vivo at 50 mg/kg was 41.9%. Consider `CN1CCN(C/C(=N\O)c2ccc(N(c3ccccc3)c3ccccc3)cc2)CC1` [Example 7, (Z)-2-(4-methylpiperazin-1-yl)-1-(4-diphenylamino-phenyl)-ethanone oxime], for which the inhibition in vivo at 50 mg/kg stood at 74.6%. `CN1CCN(C/C(=N\O)c2ccc(CCc3ccccc3)cc2)CC1` [Example 8, (Z)-2-(4-methylpiperazin-1-yl)-1-(4-(2-phenylethyl)-phenyl)-ethanone oxime]: the inhibition in vivo at 50 mg/kg was determined as 65.7%. As to `CN1CCN(C/C(=N\O)c2ccc3c(c2)Sc2ccccc2S3)CC1` [Example 14], the inhibition in vivo at 50 mg/kg was determined as 51.9%.

`CN1CCN(C/C(=N\O)c2ccc(NS(=O)(=O)c3ccccc3)cc2)CC1` [Example 31, (Z)-2-(4-methylpiperazin-1-yl)-1-(4-benzenesulfonyl-amino-phenyl)-ethanone oxime]: the inhibition in vivo at 50 mg/kg was found to be 48.4%. Turning to `CCC1c2ccccc2CCc2ccc(/C(CN3CCN(C)CC3)=N/O)cc21` (centres unmarked) [Example 19, (Z)-2-(4-methylpiperazin-1-yl)-1-(10,11-dihydro-5H-5-ethyldibenzo[a,b]cyclohepten-3-yl)-ethanone oxime], the inhibition in vivo at 50 mg/kg worked out at 90.7%. On to `CN1CCN(C/C(=N\O)c2ccc(OCc3ccccc3)cc2)CC1` [Example 33, (Z)-2-(4-methyl-piperazin-1-yl)-1-(4-benzyloxy-phenyl)-ethanone oxime hydrochloride], for which the inhibition in vivo at 50 mg/kg worked out at 41.4%.

Consider `O/N=C(\CN1CCCCC1)c1ccc(CCc2ccccc2)cc1` [Example 11, (Z)-2-(piperidin-1-yl)-1-(4-(2-phenylethyl)-phenyl)-ethanone oxime], for which the inhibition in vivo at 50 mg/kg was found to be 53%.

For the molecule `CN1CCN(C/C(=N\O)c2ccc(-n3ccnc3)cc2)CC1` [Example 23, (Z)-2-(4-methylpiperazin-1-yl)-1-(4-(imidazol-1-yl)phenyl)-ethanone oxime], the inhibition in vivo at 50 mg/kg was 50.5%. As for `CC1c2ccccc2CCc2ccc(/C(CN3CCN(C)CC3)=N/O)cc21` (centres unmarked) [Example 18, (Z)-2-(4-methylpiperazin-1-yl)-1-(10,11-dihydro-5H-5-methyldibenzo[a,b]cyclohepten-3-yl)-ethanone oxime], the inhibition in vivo at 50 mg/kg turned out to be 100%. As to `CN1CCN(C/C(=N\O)c2ccc(C3CCCCC3)cc2)CC1` [Example 3, (Z)-2-(4-methylpiperazin-1-yl)-1-(4-cyclohexyl-phenyl)-ethanone oxime], the inhibition in vivo at 50 mg/kg amounted to 59.7%. `CC(=O)N1c2ccccc2Sc2ccc(/C(CN3CCCCC3)=N/O)cc21` [Example 13]: the inhibition in vivo at 50 mg/kg was determined as 100%.

Consider `CCOc1cc(CCc2ccccc2)ccc1/C(CN1CCN(C)CC1)=N/O` [Example 34, (Z)-2-(4-methylpiperazin-1-yl)-1-(2-ethoxy-4-(2-phenylethyl)-phenyl)-ethanone oxime hydrochloride], for which the inhibition in vivo at 50 mg/kg was determined as 100%. As to `CC(=O)N(c1ccccc1)c1ccc(/C(CN2CCN(C)CC2)=N/O)cc1` [Example 6, (Z)-2-(4-methylpiperazin-1-yl)-1-(4-(N-acetyl-N-phenylamino)-phenyl)-ethanone oxime], the inhibition in vivo at 50 mg/kg turned out to be 85.7%. On to `CN1CCN(C/C(=N\O)c2ccc(Sc3ccccc3)cc2)CC1` [Example 1, (Z)-2-(4-methyl-piperazin-1-yl)-1-(4-phenylthio-phenyl)-ethanone oxime hydrochloride], for which the inhibition in vivo at 50 mg/kg was determined as 76.9%.

For `CN1CCN(C/C(=N\O)c2ccc3c(c2)Nc2ccccc2S3)CC1` [Example 22, (Z)-2-(4-methylpiperazin-1-yl)-1-(4-phenothiazin-2-yl)-ethanone oxime], the inhibition in vivo at 50 mg/kg stood at 50.6%.

On to `O/N=C(\CN1CCCCC1)c1ccc(-n2ccnc2)cc1` [Example 24, (Z)-2-(piperidin-1-yl)-1-(4-(imidazol-1-yl)-phenyl)-ethanone oxime], for which the inhibition in vivo at 50 mg/kg worked out at 41.5%.
